In brackets after ≈: the same amount, converted by molar mass. Several values for one entry are separate records, joined by “and”; a condition that tells them apart may be missing. Equal values may be shown once. Read-outs that look alike come from different tables or passages of the source. Where only a bound is given, the exact number is not on record here.

Here are results for two molecules from article PMC5563081, “Modulating Protein-Protein Interactions of the Mitotic Polo-like Kinases to Target Mutant KRAS” (Cell Chemical Biology, 2017).

One data set has as its system Panc-1. Description: Cell viability (SRB), Panc-1. To be noted: Homo sapiens, PANC-1, 72 h; for GI50: read-out: Abs GI50. The format is cell-based, human. As to the method:
(§1) SW48 Parental, SW48 G12D, Panc-1, HPAF-II, Panc 02.03 and Panc 05.04 cell lines were seeded overnight at 5000 cells per well in a 96 well plate in recommended media (ATCC). Compounds were added the following day and viability was measured at 72h using the sulforhodamine B (SRB) colorimetric assay as follows. Cells were fixed by replacing media with 1% v/v Trichloroacetic Acid (TCA) (Sigma-Aldrich) at 4°C and incubated for 1h also at 4°C. Wells were washed thoroughly with copious amounts of deionised water before staining with Sulforhodamine B (SRB) (Sigma-Aldrich) solution (0.057% w/v in 1% v/v Acetic Acid (VWR)) for 30 min. Stain was aspirated and wells washed with several changes of 1% v/v Acetic Acid until unbound stain was removed, before air-drying. Bound stain was solubilized with 100μl / well 10mM Tris (pH 8.0) (Trizma Base (121.1) Sigma-Aldrich) with agitation for 10 min. Fluorescence intensity was recorded at Ex540nm / Em590nm using a BMG Pherastar Plus plate reader ([Vichai and Kirtikara, 2006]).
Pancreatic organoids were extracted and cultured as detailed above ([Boj et al., 2015]). In brief, pancreatic organoids were seeded at 600 cells per well in a 96 well plate and allowed to grow for 7 days with media replenishment on the 3rd day. Full-grown organoids were then treated with compounds for 72h and viability determined using CellTitre Glo 3D assay (Promega). For viability assays with c-MET siRNA, cells were reverse transfected in a 6 cm dish using Dharmafect 1 (GE Dharmacon) per manufacturer’s instructions. On the following day, cells were trypsinised and plated onto 96 well plates or 6 well plates. The 96 well plates were treated with a dose range of compounds or DMSO, and viability was determined via SRB colorimetric assay. Cells in the 6 well plates were collected at the end of experiment to corroborate knockdown of c-MET by Western blotting.
Cells were reverse-transfected with 50nM (SW48 parental, SW48 KRAS G12D and Panc-1) or 25nM (HeLa Flp-In T-REx parental cells) siRNA using Dharmafect (GE Dharmacon) as manufacturer’s recommendations. Where transfected cells were subsequently treated with compounds, the cells were allowed to settle overnight and then treated with compound at the indicated concentration the following day. Viability was assessed after 72 hrs, with the SRB colorimetric assay. Knockdown efficiencies were determined by Western blot or RT-qPCR. Oligos against the following target sequences were used. c-MET (Qiagen): […], […], […]. PLK1 (Qiagen): […]. PLK2 (SMARTpool; Dharmacon): ACACAGAAGGAGAACGAUA, CAUCAAUGAGGAUAGGAUA, CUGCCUAGUGUUACUGAUA, ACAAAGUCUACGCCGCAAA. PLK3 (SMARTpool; Dharmacon): GCGAGAAGAUCCUAAAUGA, GCAAGUGGGUUGACUACUC, GCACAUCCGUUGGCCAUCA, GACCUCAAGUUGGGAAAUU. PLK4 (Qiagen): […].

The next data set deals with PLK1 PBD (Homo sapiens, UniProt P53350). Briefly: Fluorescence polarisation (FP) assay, PLK1 PBD. The format is binding. Details: PLK1 PBD (aa345-603) 84nM; GST (N, cleaved yes); made in house; host or cells: E. coli C41. As to the method:
(§2) Final concentrations of assay components used in binding assays were as follows: TAMRA-labelled consensus PLK1 PBD binding phosphopeptide, 5-TAMRA-MAGPMQS(pThreonine)PLMGAKK-acid 10nM; PLK1 PBD (aa345-603) 84nM (2.5ng/μl). Assays were carried out in PBS (pH 7.4) plus 0.03% tween. DMSO controls were run alongside all experimental compounds and % inhibition normalised to these controls. Compounds were titrated 2 fold from a top concentration of 250μM giving a maximum final concentration of DMSO in the assay of 0.25%; however the assay can tolerate DMSO up to 5%. Compound and PBD protein were incubated together at 22°C for 1 hour prior to addition of the TAMRA labelled binding phosphopeptide. The total assay volume per well was 45μl. All experiments were performed in NBS black 384-well microtiter plates (Corning). Fluorescence Polarisation (FP) was read using a BMG PheraStar plate reader with a 540/590/590nm FP module and unbound 10nm TAMRA-labelled peptide set to a FP value of 35mP.

A further data set has as its target T1, EIF2AK2 (Homo sapiens, UniProt P19525).
T1 construct: purchased DiscoverX KINOMEscan
Description: DiscoverX KINOMEscan. The format is binding. To be noted: read-out: % Control. As to the method:
(§3) A panel of 55 proteins (comprising 51 human kinases structurally or functionally related to the PLKs, plus the kinase catalytic domains of PLK1, PLK2, PLK3 and PLK4) were selected for testing by DiscoverX using the KINOMEscan assay platform. Compounds were supplied as 40x DMSO stocks and were tested at a final concentration of 50μM for Poloppin and 5μM for Poloppin-II. Binding interactions were reported as percentage of control where lower numbers indicate stronger binding. A cut-off of <35% was applied to report significant binding.

The target in another data set is T2, WNK3 (Homo sapiens, UniProt Q9BYP7).
T2 construct: purchased DiscoverX KINOMEscan
Briefly: DiscoverX KINOMEscan. The format is binding. To be noted: read-out: % Control. The protocol: as §3

For the next data set, the target named is T3, EIF2AK4 (Homo sapiens, UniProt Q9P2K8, S808G).
T3 construct: purchased DiscoverX KINOMEscan
Description: DiscoverX KINOMEscan. The format is binding. To be noted: read-out: % Control. As to the method: as §3

A short description of a further data set: Solubility in 5% DMSO. The format is physicochemical. The following applies: aqueous with cosolvent or surfactant or cyclodextrin, read-out: soluble at up to.
The target of a further data set is T4, PBD domain of human PLK2 (Homo sapiens, UniProt Q9NYY3).
T4 construct: For FP assays using PLK2 PBD (aa356-681), the same procedure was applied; GST (N, cleaved yes); made in house; host or cells: E. coli C41
T4 sequence (Q9NYY3 356-681): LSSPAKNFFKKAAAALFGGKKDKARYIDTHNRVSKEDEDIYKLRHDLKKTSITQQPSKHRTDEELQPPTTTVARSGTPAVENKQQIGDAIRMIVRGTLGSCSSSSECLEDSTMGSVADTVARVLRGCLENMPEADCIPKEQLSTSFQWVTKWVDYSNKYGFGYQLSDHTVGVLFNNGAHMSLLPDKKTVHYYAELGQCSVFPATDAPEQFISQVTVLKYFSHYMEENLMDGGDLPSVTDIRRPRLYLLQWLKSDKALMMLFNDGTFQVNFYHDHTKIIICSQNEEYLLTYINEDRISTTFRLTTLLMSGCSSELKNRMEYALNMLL
Description: Fluorescence polarisation (FP) assay, PLK2 PBD. The format is binding. The protocol: as §2
For FP assays using PLK2 PBD (aa356-681), the same procedure was applied except that TAMRA-MAGPMQTS(pThreonine)PKNGAKK was used as the consensus binding phosphopeptide.

The subject of a further data set is SW48 KRAS G12D cells. Description: Cell viability (SRB), SW48 KRAS G12D. The format is cell-based. The following applies: Homo sapiens. As to the method:
as §1

Sequence of PLK1 PBD (P53350 345-603): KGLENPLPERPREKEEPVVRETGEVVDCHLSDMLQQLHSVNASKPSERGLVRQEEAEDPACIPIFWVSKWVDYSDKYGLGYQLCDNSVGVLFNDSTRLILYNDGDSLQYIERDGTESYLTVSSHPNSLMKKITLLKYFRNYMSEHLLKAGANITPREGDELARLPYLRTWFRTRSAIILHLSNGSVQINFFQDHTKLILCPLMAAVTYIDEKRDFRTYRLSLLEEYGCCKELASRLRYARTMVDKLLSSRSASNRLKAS
T2 sequence (Q9BYP7 whole entry): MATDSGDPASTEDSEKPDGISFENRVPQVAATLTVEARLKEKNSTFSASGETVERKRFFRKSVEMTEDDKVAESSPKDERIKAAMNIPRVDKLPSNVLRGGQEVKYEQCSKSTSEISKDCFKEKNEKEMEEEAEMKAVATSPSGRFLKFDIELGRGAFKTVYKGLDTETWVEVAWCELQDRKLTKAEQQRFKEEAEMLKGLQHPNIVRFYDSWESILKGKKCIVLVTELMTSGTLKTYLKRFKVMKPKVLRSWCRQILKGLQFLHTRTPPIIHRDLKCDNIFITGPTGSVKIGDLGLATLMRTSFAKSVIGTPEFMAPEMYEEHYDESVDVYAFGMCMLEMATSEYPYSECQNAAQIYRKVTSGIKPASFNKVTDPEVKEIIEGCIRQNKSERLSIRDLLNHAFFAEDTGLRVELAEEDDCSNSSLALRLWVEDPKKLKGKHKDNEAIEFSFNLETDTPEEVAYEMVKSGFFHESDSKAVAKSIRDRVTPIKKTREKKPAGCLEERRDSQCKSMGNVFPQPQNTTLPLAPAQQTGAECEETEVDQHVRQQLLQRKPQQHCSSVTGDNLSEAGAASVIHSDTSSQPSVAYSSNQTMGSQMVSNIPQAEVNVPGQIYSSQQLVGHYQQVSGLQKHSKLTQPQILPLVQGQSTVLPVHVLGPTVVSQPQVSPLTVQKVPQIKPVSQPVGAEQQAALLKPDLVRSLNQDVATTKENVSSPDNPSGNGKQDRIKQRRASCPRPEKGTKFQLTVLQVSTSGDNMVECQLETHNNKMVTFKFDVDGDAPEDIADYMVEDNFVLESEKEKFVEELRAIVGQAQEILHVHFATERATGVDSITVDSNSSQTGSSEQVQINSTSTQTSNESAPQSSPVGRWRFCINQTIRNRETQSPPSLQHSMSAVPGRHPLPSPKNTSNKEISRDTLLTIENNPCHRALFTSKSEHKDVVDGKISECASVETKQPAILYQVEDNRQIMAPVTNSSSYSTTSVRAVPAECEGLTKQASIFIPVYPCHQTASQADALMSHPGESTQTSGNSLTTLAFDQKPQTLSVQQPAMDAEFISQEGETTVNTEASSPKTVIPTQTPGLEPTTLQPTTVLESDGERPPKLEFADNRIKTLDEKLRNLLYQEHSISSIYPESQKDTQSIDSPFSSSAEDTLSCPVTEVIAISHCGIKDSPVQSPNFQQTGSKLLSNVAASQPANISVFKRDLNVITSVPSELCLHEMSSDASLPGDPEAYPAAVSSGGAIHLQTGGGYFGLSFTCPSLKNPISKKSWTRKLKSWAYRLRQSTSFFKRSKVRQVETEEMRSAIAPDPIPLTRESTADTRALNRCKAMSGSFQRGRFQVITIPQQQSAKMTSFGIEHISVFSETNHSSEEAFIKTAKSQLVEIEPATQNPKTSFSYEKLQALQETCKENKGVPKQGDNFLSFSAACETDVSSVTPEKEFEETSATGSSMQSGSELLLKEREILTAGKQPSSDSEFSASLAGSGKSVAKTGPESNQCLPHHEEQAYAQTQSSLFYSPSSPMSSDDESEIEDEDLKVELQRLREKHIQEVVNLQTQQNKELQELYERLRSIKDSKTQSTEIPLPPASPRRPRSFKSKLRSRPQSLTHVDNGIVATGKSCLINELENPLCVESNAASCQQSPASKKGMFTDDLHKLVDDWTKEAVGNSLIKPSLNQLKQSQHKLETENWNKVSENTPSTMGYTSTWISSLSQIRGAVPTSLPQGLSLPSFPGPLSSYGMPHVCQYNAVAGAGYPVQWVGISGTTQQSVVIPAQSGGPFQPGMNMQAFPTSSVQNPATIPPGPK
T1 sequence (P19525 whole entry): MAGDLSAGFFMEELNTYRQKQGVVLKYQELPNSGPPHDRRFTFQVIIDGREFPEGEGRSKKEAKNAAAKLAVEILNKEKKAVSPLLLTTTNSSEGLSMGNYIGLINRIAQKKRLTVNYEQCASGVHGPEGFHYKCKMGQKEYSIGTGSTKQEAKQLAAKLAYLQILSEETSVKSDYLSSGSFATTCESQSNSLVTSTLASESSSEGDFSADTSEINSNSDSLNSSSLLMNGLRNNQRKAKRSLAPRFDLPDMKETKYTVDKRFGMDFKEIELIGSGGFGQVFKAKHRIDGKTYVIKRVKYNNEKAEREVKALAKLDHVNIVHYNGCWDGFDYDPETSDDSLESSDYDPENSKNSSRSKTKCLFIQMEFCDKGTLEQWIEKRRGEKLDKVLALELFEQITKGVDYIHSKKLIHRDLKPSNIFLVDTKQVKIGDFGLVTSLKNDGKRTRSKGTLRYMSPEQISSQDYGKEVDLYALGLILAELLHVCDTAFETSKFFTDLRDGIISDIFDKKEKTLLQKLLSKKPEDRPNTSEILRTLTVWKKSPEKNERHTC
T3 sequence (Q9P2K8 590-1001 S808G limits assumed): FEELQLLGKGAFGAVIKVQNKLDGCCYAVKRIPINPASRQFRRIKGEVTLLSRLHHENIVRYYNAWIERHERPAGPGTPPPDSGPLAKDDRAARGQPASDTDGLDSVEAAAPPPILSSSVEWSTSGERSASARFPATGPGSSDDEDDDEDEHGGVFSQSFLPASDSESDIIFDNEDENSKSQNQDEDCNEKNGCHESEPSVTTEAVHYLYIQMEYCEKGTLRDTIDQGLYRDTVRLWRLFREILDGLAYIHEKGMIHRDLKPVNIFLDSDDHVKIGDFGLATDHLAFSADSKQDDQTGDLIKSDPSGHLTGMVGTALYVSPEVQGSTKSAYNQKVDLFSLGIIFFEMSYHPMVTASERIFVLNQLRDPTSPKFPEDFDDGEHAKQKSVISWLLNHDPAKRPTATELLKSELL

One may read the GI50 as the concentration that inhibits growth by half. As a reminder, the IC50 is the concentration at which inhibition is half-maximal. Consider `CN(C)CCNC(=O)c1ccc(-c2ccc(-c3ccc(Cl)cc3)n2-c2ccccc2C(F)(F)F)cc1` [Poloppin-II], for which the GI50 worked out at 0.314 µM with Panc-1 (Panc-1, individual compound, 72 hr, Figure 7G) and 0.0115 ± 0.00109 µM in the data set with SW48 KRAS G12D cells (SW48 G12D, 72 hr, Figure 5D, read-out: GI50). The IC50 on PLK1 PBD (read-out: IC50, binding of TAMRA-labeled phosphopeptide to PLK1 PBD) was 40.9 µM and 41 µM; on PBD domain of human PLK2 (read-out: IC50, binding of TAMRA-labelled phosphopeptide to PLK2 PBD) it was 105 µM. Further, the remaining binding at 5 µM is 90% at EIF2AK2 (EIF2AK2, Poloppin-II 5µM, hit <35%); 100% on WNK3 (WNK3, Poloppin-II 5µM, hit <35%); 97% on EIF2AK4 (EIF2AK4, Poloppin-II 5µM, hit <35%). In “Solubility in 5% DMSO”, the solubility was ~100 µM (≈ 51.2 µg/mL).
One may read the EC50 as the concentration giving half of the maximal effect. In the case of `O=C(O)CCc1ccc(-c2ccc(Br)cc2)n1-c1ccccc1C(F)(F)F` [Poloppin], the GI50 with Panc-1 came to 33.4 µM; in the data set on SW48 KRAS G12D cells (SW48), 5.3 ± 1.03 µM. In addition, the EC50 in the data set with Panc-1 (read-out: EC50, % survival, Panc-1, All Stars control siRNA, 72 h) is 40.4 ± 1.03 µM; with Panc-1 (read-out: EC50, % survival, Panc-1, siMET, 72 h) it was 16.8 ± 1.03 µM. The IC50 is 26.9 µM at PLK1 PBD (IC50, binding of TAMRA-labeled phosphopeptide to PLK1 PBD); 88.3 µM and 88 µM at PBD domain of human PLK2 (IC50, binding of TAMRA-labelled phosphopeptide to PLK2 PBD). Moreover, the remaining binding at 50 µM on EIF2AK2 amounted to 69%; at WNK3, 100%; at EIF2AK4, 100%. In addition, in the data set “Solubility in 5% DMSO”, the solubility is ≤ 1000 µM. Further, on PBD domain of human PLK2, the “selectivity for PLK1-PBD over PLK2-PBD” value is reported as ~3 fold.
